Calls of active or inactive are those of the source. Where only a bound is given, the exact number is not on record here.

Assay [1] deals with Glyceraldehyde-3-phosphate dehydrogenase (Homo sapiens, UniProt P04406).
The nature of assay [2]: Luminescence Cell-Based Dose Response HTS to Identify Activators of Luciferase Translation or Activity in H4 […] Cells. [Related pubchem assays: 1829 (Project Summary), 1814 (Primary HTS)]. It counts as functional.
Assay [3] in a line: Luminescence Cell-Based Dose Confirmation HTS to Identify Activators of 5'UTR Stem-Loop Driven Alpha-Synuclein mRNA Translation in H4 Neuroglioblastoma Cells. [Related pubchem assays: 1829 (Project Summary), 1814 (Primary HTS)]. It counts as functional.
The subject of assay [4] is H4. Nature of the assay: Luminescence Cell-Based Dose Response HTS to Identify Activators of 5'UTR Stem-Loop Driven Prion Protein mRNA Translation in H4 Neuroglioblastoma Cells. [Related pubchem assays: 1829 (Project Summary), 1814 (Primary HTS)]. The class given is functional. The settings on record: Homo sapiens.
In assay [5] the target is T1, Cytochrome P450 1A2 (Homo sapiens, UniProt P05177).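 Also: PubChem cytochrome P450 panel assay, CYP1A2 panel member.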
T1 sequence (P05177 whole entry): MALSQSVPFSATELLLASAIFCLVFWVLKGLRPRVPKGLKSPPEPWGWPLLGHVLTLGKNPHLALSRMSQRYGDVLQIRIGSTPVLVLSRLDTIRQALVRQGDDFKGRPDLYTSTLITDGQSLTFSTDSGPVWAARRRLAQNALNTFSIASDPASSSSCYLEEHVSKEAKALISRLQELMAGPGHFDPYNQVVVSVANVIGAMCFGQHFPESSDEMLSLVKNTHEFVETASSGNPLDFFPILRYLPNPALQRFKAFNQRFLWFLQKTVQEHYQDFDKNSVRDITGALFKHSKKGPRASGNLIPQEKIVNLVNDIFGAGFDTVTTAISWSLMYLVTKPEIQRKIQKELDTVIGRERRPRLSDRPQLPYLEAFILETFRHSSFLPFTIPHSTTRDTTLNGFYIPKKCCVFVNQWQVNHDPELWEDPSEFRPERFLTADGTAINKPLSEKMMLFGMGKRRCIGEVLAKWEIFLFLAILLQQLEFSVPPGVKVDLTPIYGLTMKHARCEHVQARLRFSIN

The target of assay [6] is Cytochrome P450 3A4 (Homo sapiens, UniProt P08684).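 Also: CYP3A4 tested as one member of a cytochrome P450 panel screen.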
Assay [7] in a line: cells. It counts as functional.
Assay [8] has as its target T2, DNA repair protein RAD52 homolog (Homo sapiens, UniProt P43351).
T2 sequence (P43351 whole entry): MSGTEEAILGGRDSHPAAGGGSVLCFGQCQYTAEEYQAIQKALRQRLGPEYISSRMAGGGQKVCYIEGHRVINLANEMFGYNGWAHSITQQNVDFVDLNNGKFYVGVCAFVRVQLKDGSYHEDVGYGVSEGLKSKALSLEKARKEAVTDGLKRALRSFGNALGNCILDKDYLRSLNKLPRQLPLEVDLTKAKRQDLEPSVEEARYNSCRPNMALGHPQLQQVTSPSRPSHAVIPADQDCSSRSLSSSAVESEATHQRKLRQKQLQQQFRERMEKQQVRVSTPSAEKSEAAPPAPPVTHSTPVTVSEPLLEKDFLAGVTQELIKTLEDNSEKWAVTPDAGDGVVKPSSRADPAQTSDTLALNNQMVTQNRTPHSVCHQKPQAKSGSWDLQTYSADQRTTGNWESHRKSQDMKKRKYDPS
The class given is functional, biochemical.

The nature of assay [9]: HepG2 cell cytotoxicity, dose response, cytotoxicity control for non-replicating M. tuberculosis project (AID 489018). Conditions: Mycobacterium tuberculosis. It counts as functional.
A short description of assay [10]: THP-1 cell cytotoxicity, dose response, cytotoxicity control for non-replicating M. tuberculosis project (AID 489025). It counts as functional.
The nature of assay [11]: Vero E6 cell cytotoxicity, dose response, cytotoxicity control for non-replicating M. tuberculosis project, secondary assay (AID 492998). Conditions: Vero C1008. The class given is functional, VeroE6.
The target in assay [12] is Genome polyprotein (dengue virus type 2, UniProt P29990). Put plainly: Dengue-2 NS5 methyltransferase inhibitors, primary screen, biochemical, confirmation dose response (AID 588689). It counts as functional.
The target in assay [13] is Eukaryotic translation initiation factor 4E (Mus musculus, UniProt P63073). Nature of the assay: eIF4E–eIF4G protein interaction inhibitors, dose response, biochemical, TR-FRET (AID 855).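 Also: potency for disrupting eIF4E binding to eIF4GI seen as loss of FRET.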 It counts as functional. Background: TR-FRET usually uses a lanthanide donor and a delayed reading to cut background.
Assay [14] addresses Glucose-6-phosphate 1-dehydrogenase (Homo sapiens, UniProt P11413). Put plainly: human G6PD enzyme inhibitors, dose response, selectivity assay for P. falciparum G6PD inhibitor project, biochemical, fluorescence (AID 504792). It counts as functional.
Assay [15] has as its system Vero. Nature of the assay: Vero cell cytotoxicity, cytotoxicity control for flavivirus capping enzyme inhibitors (AID 588742). It counts as functional. Conditions: Chlorocebus sabaeus.
Assay [16] concerns Streptococcus. Put plainly: Group A Streptococcus viability loss, dose response, counter-screen for streptokinase expression inhibitor project, luminescence, BacTiterGlo (AID 1915).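 Also: potency for reduction of bacterial viability or growth.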 The class given is functional, organism-based. On the technique in general: The purpose of a counterscreen is to sort out artefacts and off-target activity.
In assay [17] the test system is Streptococcus sp. 'group A'. Put plainly: growth inhibition of control SK(-) GAS strain, dose response, counter-screen for streptokinase expression inhibitor project, luminescence, kanamycin, BacTiterGlo, confirmation (AID 1900). The class given is functional, organism-based.
Assay [18] deals with T3, Microphthalmia-associated transcription factor (Homo sapiens, UniProt O75030).
T3 sequence (O75030 whole entry): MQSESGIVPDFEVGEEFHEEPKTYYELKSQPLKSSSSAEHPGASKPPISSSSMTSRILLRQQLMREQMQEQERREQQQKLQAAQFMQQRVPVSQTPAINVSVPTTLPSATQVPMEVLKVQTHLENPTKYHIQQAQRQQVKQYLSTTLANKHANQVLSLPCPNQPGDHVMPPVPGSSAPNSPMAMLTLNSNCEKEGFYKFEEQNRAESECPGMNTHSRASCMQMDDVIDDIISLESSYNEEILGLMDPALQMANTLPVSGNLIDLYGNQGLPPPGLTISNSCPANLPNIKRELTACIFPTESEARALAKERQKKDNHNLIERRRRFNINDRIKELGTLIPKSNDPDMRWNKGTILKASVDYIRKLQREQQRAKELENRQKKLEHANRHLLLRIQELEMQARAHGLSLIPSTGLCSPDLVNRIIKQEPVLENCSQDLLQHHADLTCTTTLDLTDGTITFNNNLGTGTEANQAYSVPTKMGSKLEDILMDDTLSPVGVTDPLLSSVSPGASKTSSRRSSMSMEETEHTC
Nature of the assay: TRPM1 promoter luciferase signal decrease, dose response, MITF inhibitor project, cell-based, SK-MEL-5, cherry-picked, set 3 (AID 493073).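 Also: SK-MEL-5 melanoma cells with luciferase driven by the MITF target TRPM1 promoter.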 The class given is functional.

Assay [19] is described as follows: NIH-3T3 fibroblast cytotoxicity, dose response, cytotoxicity control, cell-based, fluorescence, Alamar Blue, secondary assay (AID 2327).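 Also: NIH-3T3 mouse fibroblasts cultured with fluconazole at 8 µg/mL.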 It counts as functional. (In general: Alamar Blue is a resazurin reagent that responds to reducing activity.)
The nature of assay [20]: cells. The class given is functional, cell-based.
A short description of assay [21]: C. albicans growth with fluconazole, confirmation, fluorescence, retest (AID 2467). It counts as functional, cell-based.
Assay [22] in a line: cells. The class given is functional, cell-based. This is another data set of the same source.
For assay [23], the target named is T4, Aminopeptidase N (Plasmodium falciparum FcB1/Columbia, UniProt O96935).
T4 sequence (O96935 whole entry): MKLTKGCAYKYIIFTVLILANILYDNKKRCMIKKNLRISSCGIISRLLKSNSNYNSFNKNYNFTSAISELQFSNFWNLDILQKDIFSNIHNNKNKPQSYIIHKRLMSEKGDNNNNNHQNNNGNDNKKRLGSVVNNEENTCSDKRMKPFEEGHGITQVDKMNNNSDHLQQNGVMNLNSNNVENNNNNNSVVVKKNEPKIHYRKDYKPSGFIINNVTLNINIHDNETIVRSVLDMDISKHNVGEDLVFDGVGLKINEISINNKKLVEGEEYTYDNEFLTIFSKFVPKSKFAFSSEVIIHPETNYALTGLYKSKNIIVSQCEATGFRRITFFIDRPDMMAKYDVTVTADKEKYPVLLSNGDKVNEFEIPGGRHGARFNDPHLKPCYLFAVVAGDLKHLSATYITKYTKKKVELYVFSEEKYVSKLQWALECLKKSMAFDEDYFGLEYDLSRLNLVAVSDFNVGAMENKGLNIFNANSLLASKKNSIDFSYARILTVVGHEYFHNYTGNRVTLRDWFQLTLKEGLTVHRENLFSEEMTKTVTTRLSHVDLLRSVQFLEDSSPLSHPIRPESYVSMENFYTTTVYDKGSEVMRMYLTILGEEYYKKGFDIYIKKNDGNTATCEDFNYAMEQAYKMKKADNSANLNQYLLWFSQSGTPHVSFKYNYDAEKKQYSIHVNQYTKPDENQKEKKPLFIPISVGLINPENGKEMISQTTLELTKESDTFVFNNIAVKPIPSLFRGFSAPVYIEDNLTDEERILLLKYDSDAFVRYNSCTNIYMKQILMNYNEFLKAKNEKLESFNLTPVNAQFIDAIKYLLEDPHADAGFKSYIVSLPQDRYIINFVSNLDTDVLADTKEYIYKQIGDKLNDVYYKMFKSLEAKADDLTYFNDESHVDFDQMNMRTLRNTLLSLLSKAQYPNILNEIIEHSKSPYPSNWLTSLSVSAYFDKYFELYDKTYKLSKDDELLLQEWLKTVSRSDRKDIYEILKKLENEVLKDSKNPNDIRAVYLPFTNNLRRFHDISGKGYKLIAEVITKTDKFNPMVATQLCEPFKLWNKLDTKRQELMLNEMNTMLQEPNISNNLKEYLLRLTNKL
Put plainly: P. falciparum M1AAP inhibitors, biochemical, fluorogenic H-Leu-NHMec substrate, 1536-well (AID 1445). Also noted: species or system Plasmodium falciparum 3D7, 3D7.

The test system of assay [24] is INS1. Nature of the assay: beta cell apoptosis inhibitors, cytokine rescue, dose response, luminescence, retest (AID 449756).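 Also: cell death triggered by IL-1 beta plus TNF-alpha plus IFN-gamma mixture; protective hits raise ATP signal compared with cytokine alone wells.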 The settings on record: Rattus norvegicus. It counts as functional, cell-based.

Chain of Glyceraldehyde-3-phosphate dehydrogenase (P04406 whole entry): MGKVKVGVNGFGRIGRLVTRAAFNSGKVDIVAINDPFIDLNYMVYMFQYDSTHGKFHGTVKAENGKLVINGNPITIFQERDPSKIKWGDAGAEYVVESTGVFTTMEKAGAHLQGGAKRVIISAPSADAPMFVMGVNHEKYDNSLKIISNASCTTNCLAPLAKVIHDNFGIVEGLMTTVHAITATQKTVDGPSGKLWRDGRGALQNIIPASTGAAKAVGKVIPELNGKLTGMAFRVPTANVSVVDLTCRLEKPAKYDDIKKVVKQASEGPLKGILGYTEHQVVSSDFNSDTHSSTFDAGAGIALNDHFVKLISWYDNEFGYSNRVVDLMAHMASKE
Chain of Genome polyprotein (P29990 2492-3391 limits assumed): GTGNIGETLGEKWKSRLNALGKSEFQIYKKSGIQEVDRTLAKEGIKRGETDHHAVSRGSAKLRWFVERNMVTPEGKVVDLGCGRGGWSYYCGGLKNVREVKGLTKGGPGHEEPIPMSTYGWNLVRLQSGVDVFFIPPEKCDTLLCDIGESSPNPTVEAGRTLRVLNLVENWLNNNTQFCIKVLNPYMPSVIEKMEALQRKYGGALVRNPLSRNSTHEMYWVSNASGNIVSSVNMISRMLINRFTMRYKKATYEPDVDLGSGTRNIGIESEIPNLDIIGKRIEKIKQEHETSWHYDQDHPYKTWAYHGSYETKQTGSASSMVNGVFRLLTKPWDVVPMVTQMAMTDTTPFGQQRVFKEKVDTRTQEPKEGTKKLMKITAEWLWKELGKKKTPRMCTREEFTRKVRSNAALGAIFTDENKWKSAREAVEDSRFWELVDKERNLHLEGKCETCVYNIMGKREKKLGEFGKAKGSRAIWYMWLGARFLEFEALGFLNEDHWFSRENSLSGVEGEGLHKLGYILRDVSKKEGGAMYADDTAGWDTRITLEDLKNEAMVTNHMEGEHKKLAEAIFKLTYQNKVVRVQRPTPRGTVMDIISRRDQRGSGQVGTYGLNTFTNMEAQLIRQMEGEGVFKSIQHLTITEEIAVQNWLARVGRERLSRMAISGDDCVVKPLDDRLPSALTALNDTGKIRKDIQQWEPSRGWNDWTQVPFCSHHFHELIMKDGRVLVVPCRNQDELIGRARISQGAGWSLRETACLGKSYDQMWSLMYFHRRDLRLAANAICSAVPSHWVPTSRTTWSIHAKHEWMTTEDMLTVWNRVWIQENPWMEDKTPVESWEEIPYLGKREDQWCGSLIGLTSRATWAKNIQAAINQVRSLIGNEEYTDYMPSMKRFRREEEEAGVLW
Chain of Glucose-6-phosphate 1-dehydrogenase (P11413 whole entry): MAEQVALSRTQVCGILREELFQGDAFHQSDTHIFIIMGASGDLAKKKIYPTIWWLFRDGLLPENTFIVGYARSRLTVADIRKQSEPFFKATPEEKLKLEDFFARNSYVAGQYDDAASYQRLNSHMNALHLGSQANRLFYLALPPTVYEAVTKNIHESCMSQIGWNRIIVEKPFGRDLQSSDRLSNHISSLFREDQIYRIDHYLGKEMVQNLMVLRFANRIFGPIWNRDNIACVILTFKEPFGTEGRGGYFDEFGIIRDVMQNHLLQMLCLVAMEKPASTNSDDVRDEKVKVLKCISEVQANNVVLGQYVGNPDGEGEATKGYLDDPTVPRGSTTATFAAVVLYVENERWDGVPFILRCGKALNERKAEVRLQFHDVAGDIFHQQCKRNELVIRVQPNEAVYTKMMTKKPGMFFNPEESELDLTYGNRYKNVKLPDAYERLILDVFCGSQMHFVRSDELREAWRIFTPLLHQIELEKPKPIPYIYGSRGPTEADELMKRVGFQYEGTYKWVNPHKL
Chain of Cytochrome P450 3A4 (P08684 whole entry): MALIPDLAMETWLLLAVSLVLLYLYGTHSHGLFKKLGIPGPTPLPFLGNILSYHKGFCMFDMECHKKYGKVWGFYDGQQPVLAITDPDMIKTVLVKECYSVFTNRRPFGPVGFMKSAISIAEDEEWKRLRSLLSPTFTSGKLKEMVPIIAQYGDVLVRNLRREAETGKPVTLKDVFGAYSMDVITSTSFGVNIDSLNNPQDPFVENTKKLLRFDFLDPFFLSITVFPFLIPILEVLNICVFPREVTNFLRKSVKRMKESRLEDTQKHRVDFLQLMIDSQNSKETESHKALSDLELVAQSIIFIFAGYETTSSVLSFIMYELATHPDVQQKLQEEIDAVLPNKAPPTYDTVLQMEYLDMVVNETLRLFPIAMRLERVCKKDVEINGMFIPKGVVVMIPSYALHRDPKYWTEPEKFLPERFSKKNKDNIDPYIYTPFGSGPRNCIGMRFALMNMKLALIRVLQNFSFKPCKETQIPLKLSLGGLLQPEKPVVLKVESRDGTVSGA
Chain of Eukaryotic translation initiation factor 4E (P63073 whole entry): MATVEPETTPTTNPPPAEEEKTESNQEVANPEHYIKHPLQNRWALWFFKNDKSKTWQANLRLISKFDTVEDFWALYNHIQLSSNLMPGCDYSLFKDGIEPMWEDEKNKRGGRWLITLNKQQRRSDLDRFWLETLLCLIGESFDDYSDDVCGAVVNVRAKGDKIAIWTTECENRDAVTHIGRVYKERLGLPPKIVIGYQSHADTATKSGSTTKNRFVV

As to `Cc1cc(C(=O)Nc2ccc(O)c(C(=O)O)c2)c(C)o1`, in assay [1], the IC50 (usually the concentration at which inhibition is half-maximal) is > 100 µM (not active).

In the case of `CCc1nccn1CCC(=O)N1CCCC(N2CCN(c3cccc(Cl)c3)CC2)C1` (centres undefined), the EC50 (as a rule, the concentration at which the effect is half-maximal) is 25.5 µM (active) in assay [2], > 120 µM (not active) in [3] and 16.3 µM (active) in assay [4].

Consider `Cc1ccc(Oc2ncc(CN3CCOCC3)s2)cc1`, for which the EC50 in assay [2] was 13.1 µM (active); in [3], 13.1 µM (active); in [4], 40.4 µM (active). Also, the AC50 (commonly the midpoint of the concentration-response curve, whichever way the signal moves) was 22.4 µM (inconclusive) in assay [5] and 20 µM (inconclusive) in assay [6].

`C/C(=N\NC(=O)c1nc2ccccn2c1C)c1ccco1`: the EC50 is > 120 µM (not active) in assay [2], 14.4 µM (active) in [3] and 15.7 µM (active) in assay [4].

Regarding `CN(C)CC/C=C1\c2ccccc2Sc2cc(F)c(Cl)cc21`, in assay [7], the IC50 is 20.8 µM (active). Moreover, in assay [8], the AC50 is 15.1 µM (active). The figures for the CC50 in [9], in assay [10] and in assay [11] were > 20 µM (active), 17 µM (active) and > 20 µM (active), respectively.

`COc1cc(CNc2ccc(N3CCCC3)cc2)ccc1OCc1ccccc1F`: the IC50 in [12] is 54.2 µM (active); in [13], > 64 µM (inactive); in assay [14], > 80 µM (inactive). The cytotoxic concentration (CC50) (in general, the concentration that lowers cell viability or growth by half) in assay [15] was > 40 µM (active).

For the compound `O=C(CSc1nnc2ccc3ccccc3n12)N1CCOCC1`, the EC50 in assay [2] is 14.6 µM (active); in assay [3], > 120 µM (not active); in assay [4], 14.4 µM (inconclusive).

Regarding `O=C1C(Cl)=C(N2CCN(Cc3ccccc3)CC2)C(=O)N1c1ccc(C(F)(F)F)cc1`, the half-maximal inhibitory concentration (IC50) in [1] is > 50 µM (inconclusive).

For the compound `Cc1nc(C)c(C(=O)N/N=C/c2cc(Br)ccc2O)s1`, the EC50 in assay [16] is 8.73 µM (active); in assay [17], 2.35 µM (active); in assay [19], > 150 µM (inactive); in assay [20], > 350 µM (not active); in assay [21], 1.34 µM (active); in assay [22], 99.3 µM (active). The AC50 in assay [18] is 3.66 µM (active); in assay [24], 2.63 µM (active). For the same compound, the IC50 in assay [23] is 12.9 µM (active).
